Values after ≈ are worked out from the molar mass of the structure shown. “Also recorded” adds a separate entry of the source.
How the values were obtained:
Format in all cases: physicochemical
[1] = thermal phase stability from DSC and TGA thermograms; conditions: for phase transformation on heating: DSC and TGA thermograms
Protocol: […] data were collected on TA Instruments Q200 DSC. Method: A sample of 1 to 10 mg was placed in an aluminum pan with a pin-holed lid, and the sample was heated from room temperature to 200° C. at a heating rate of 10° C./min under the protection of dry nitrogen purge at 40 mL/min.
Thermogravimetric analysis data were collected on TA Instruments Q500 TGA. Method: A sample of 5 to 15 mg was placed in a platinum pan, using High Resolution™, the sample was heated from room temperature to 350° C. at a heating rate of 10° C./min under the protection of dry nitrogen purge at 40 mL/min.

[2] = water solubility test; conditions: for Solubility: 25° C.±2° C., visual clarity, 5 mg sample, max 100 mL water
Protocol: Accurately weighed 5 mg samples in a 200 mL flask which was in a water bath with temperature 25° C.±2° C., added water in a geometric fashion the flask, stirred (about 200 r/min), and observed by naked eyes to see if it was clear. Water was added every 3 mins, maximum water amount 100 mL.

[3] = isothermal sorption (dynamic vapor sorption); conditions: 0% RH to 80% RH; for hygroscopicity: isothermal sorption
Protocol: Dynamic vapor sorption data and isothermal sorption data were collected on TA Instruments Q5000 TGA. Method: A sample of 1 to 10 mg was placed in a platinum pan; the weight change of the sample during the change in relative humidity from 0% to 80% to 0% was measured.

Row | phase transformation on heating [1] | water solubility [2] | Solubility [2] | hygroscopicity [3] | weight change, isothermal sorption curve [3] | dehydration and start of phase transition temperature ([1]; DSC) | phase transition temperature lower than that of Form 2 ([1]; DSC thermograms, difference to Form 2) | SMILES
1 | no phase transformation before melting | about 160 ug/mL | 160 µg/mL (≈ 433 µM) | non-hygroscopic |  |  |  | Cc1cccc(-c2nn3c(c2-c2ccnc4ccc(C(N)=O)cc24)CCC3)n1 [LY2157299 Form 1, 2-(6-methyl-pyridin-2-yl)-3-(6-amido-quinolin-4-yl)-5,6-dihydro-4h-pyrrolo[1,2-b]pyrazole]
2 |  | about 200 ug/mL | 200 µg/mL (≈ 541 µM) | slightly hygroscopic | 0.25% |  |  | Cc1cccc(-c2nn3c(c2-c2ccnc4ccc(C(N)=O)cc24)CCC3)n1 [LY2157299 Form 2, 2-(6-methyl-pyridin-2-yl)-3-(6-amido-quinolin-4-yl)-5,6-dihydro-4h-pyrrolo[1,2-b]pyrazole]
3 | no phase transformation before melting | about 150 μg/mL | 150 µg/mL (≈ 406 µM) | non-hygroscopic |  |  |  | Cc1cccc(-c2nn3c(c2-c2ccnc4ccc(C(N)=O)cc24)CCC3)n1 [LY2157299 Form 3, 2-(6-methyl-pyridin-2-yl)-3-(6-amido-quinolin-4-yl)-5,6-dihydro-4h-pyrrolo[1,2-b]pyrazole]
4 |  | about 100 ug/mL | 100 µg/mL (≈ 271 µM) | slightly hygroscopic | 0.95% |  |  | Cc1cccc(-c2nn3c(c2-c2ccnc4ccc(C(N)=O)cc24)CCC3)n1 [LY2157299 Form 4, 2-(6-methyl-pyridin-2-yl)-3-(6-amido-quinolin-4-yl)-5,6-dihydro-4h-pyrrolo[1,2-b]pyrazole]
5 |  | about 100 μg/mL | 100 µg/mL (≈ 271 µM) |  |  |  |  | Cc1cccc(-c2nn3c(c2-c2ccnc4ccc(C(N)=O)cc24)CCC3)n1 [LY2157299 Form 7, 2-(6-methyl-pyridin-2-yl)-3-(6-amido-quinolin-4-yl)-5,6-dihydro-4h-pyrrolo[1,2-b]pyrazole]

Row | SMILES | phase transformation on heating [1] | water solubility [2] | Solubility [2] | hygroscopicity [3] | weight change, isothermal sorption curve [3] | dehydration and start of phase transition temperature ([1]; DSC) | phase transition temperature lower than that of Form 2 ([1]; DSC thermograms, difference to Form 2)
6 | Cc1cccc(-c2nn3c(c2-c2ccnc4ccc(C(N)=O)cc24)CCC3)n1 [LY2157299 Monohydrate, 2-(6-methyl-pyridin-2-yl)-3-(6-amido-quinolin-4-yl)-5,6-dihydro-4h-pyrrolo[1,2-b]pyrazole] | dehydrates under temperature and its phase transformes; also recorded: dehydrates under temperature and has phase transformation |  | <50 µg/mL | slightly hygroscopic |  | 133 °C | 60 °C

— patent US11111248B2, “Crystal form of 2-(6-methyl-pyridin-2-yl)-3-yl-[6-amido-quinolin-4-yl]-5,6-dihydro-4H-pyrrolo[1,2-B]pyrazole, preparation method therefor and pharmaceutical composition thereof” (Hangzhou SoliPharma Co., Ltd., priority 2017, dated 2021)
